Results on seven compounds are retold here after PubChem BioAssay (NCI).

Holding throughout (assay): growth of human tumour cells (NCI), 48 h
Assay [1] deals with NCI-H522 lung.
For assay [2], the system named is K-562 leukemia.
For assay [3], the system named is SF-539 CNS.
For assay [4], the system named is SR leukemia.
The subject of assay [5] is SF-295 CNS.
In assay [6] the test system is OVCAR-4 ovarian.
Assay [7] deals with UACC-257 melanoma.
Assay [8] has as its system HCT-15 colon.
Assay [9] deals with NCI-H460 lung.
For assay [10], the system named is SK-MEL-28 melanoma.
Assay [11] has as its system HS 578T breast.
Assay [12] relates to DU-145 prostate.
Assay [13] deals with SW-620 colon.
Assay [14] concerns SNB-19 CNS.
Assay [15] concerns MCF7 breast.
Assay [16] deals with HCC-2998 colon.
Assay [17] deals with PC-3 prostate.

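Dose response: 5 concentrations. Exposure: 48 h. Format: 96-well plates. Endpoint: linear interpolation; highest concentration if not reached. TGI: concentration producing complete growth inhibition.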

With `C[n+]1ccccc1/C=C/c1ccc2c(c1)OCO2`, the TGI in assay [1], in [2], in assay [3], in [4], in assay [5] and in [6] was greater than 10 µM in each case. Besides, the TGI in assay [7], in assay [8], in assay [9], in assay [10], in assay [11] and in assay [12] was greater than 10 µM in each case. For the same compound, the TGI in assay [13], in assay [14], in assay [15], in [16] and in assay [17] was greater than 10 µM each time.

On to `COc1ccc(OC)c2c1C(=O)C(Cl)=C(Cl)C2=O`, for which the TGI in assay [1] is 4.68 µM; in assay [2], greater than 100 µM; in assay [3], 11.6 µM; in assay [4] it was greater than 88 µM; in assay [5], 38.6 µM; in [6], 13 µM. Also, the TGI was found to be 4.68 µM in assay [7]; 10.7 µM in assay [8]; 44.3 µM in assay [9]; 12.8 µM in assay [10]; 6.06 µM in [11]; 37.6 µM in assay [12]. Also, the TGI in [13] is 3.6 µM; in [14], greater than 77.4 µM; in assay [15], 10.4 µM; in [16] it was 31.2 µM; in [17], 27.6 µM.

With `COC(=O)c1ccc(NCc2cc(O)c3ccccc3c2O)cc1`, the TGI in assay [1] was found to be 43.8 µM; in [2] it was 6.97 µM; in assay [3] it was 28.6 µM; in assay [4], 21.7 µM; in assay [5] it was 19.9 µM; in [6], 25.9 µM. In addition, the TGI in [7] amounted to 20.5 µM; in [8], 28.8 µM; in assay [9] it was 24.5 µM; in assay [10], 18.3 µM; in assay [11] it was 98.2 µM; in [12], 30.3 µM. The TGI in assay [13] is 32.3 µM; in [14], greater than 81.8 µM; in assay [15], 21.3 µM; in [16], 39.9 µM; in assay [17], 33.5 µM.

With `COc1ccc(/C=C/c2cc(=O)cc(/C=C/c3ccc(OC)c(O)c3)o2)cc1O`, the TGI is greater than 100 µM in assay [1]; greater than 100 µM in [2]; 3.47 µM in assay [3]; 2.89 µM in assay [4]; 13.3 µM in assay [5]; 9.77 µM in assay [6]. The TGI in [7] is 3.78 µM; in assay [8], 13.6 µM; in [9] it was 5.73 µM; in [10], greater than 100 µM; in assay [11] it was greater than 100 µM; in assay [12] it was greater than 29.3 µM. The TGI in [13] was greater than 21.8 µM; in assay [14], greater than 39 µM; in assay [15] it was 5 µM; in assay [16] it was 3.32 µM; in [17], 12.3 µM.

Take `CC(C)C(OC(=O)c1cc(NC(=S)c2ccccc2)ccc1Cl)C(C)C`: the TGI in assay [1] was 29.4 µM; in [2] it was greater than 100 µM; in assay [3], 65.5 µM; in [4], greater than 60.8 µM; in assay [5] it was greater than 84.7 µM; in assay [6], greater than 100 µM. Moreover, the TGI is 58.5 µM in [7]; 74.4 µM in assay [8]; 47.4 µM in assay [9]; greater than 90 µM in assay [10]; 69 µM in assay [11]; greater than 100 µM in assay [12]. Besides, the TGI is greater than 89.6 µM in [13]; greater than 100 µM in assay [14]; greater than 100 µM in assay [15]; greater than 53.1 µM in assay [16]; 38.4 µM in [17].

Regarding `COc1cc(C(CN)N(C)C)cc(OC)c1OC` (centres undefined), the TGI in assay [1], in [2], in assay [3], in assay [4], in assay [5] and in assay [6] was greater than 100 µM in each case. Moreover, the TGI in [7], in [8], in assay [9], in assay [10], in assay [11] and in assay [12] was greater than 100 µM in each case. Besides, the TGI in assay [13], in assay [14], in assay [15], in [16] and in assay [17] was greater than 100 µM each time.

For the compound `C[C@@H]1O[C@@H]2OCC[C@@H]2C2=C1C(=O)c1ccccc1C2=O`, the TGI in [1] amounted to 20.3 µM; in assay [2], 32.7 µM; in [3], 22.3 µM; in assay [4], 28.1 µM; in [5], 33 µM; in [6], 16.4 µM. Besides, the TGI is 24.5 µM in assay [7]; 44.5 µM in assay [8]; 31.9 µM in assay [9]; 51.5 µM in [10]; greater than 100 µM in assay [11]; 21 µM in assay [12]. Moreover, the TGI in assay [13] was 15.2 µM; in assay [14] it was 36.5 µM; in assay [15] it was 2.81 µM; in [16], 35.4 µM; in assay [17] it was greater than 100 µM.
